The record followed here is ChEMBL document CHEMBL2074536, “Characterization of stably transfected kidney epithelial cell line expressing rat H+/peptide cotransporter PEPT1: localization of PEPT1 and transport of beta-lactam antibiotics” (J Pharmacol Exp Ther, 1997).

Where a SMILES comes first, the peptide text is derived from it.

What all share (assay type): functional, cell-based
Data set [1] deals with T1, Solute carrier family 15 member 1 (Rattus norvegicus) (UniProt P51574).
T1 sequence (whole entry): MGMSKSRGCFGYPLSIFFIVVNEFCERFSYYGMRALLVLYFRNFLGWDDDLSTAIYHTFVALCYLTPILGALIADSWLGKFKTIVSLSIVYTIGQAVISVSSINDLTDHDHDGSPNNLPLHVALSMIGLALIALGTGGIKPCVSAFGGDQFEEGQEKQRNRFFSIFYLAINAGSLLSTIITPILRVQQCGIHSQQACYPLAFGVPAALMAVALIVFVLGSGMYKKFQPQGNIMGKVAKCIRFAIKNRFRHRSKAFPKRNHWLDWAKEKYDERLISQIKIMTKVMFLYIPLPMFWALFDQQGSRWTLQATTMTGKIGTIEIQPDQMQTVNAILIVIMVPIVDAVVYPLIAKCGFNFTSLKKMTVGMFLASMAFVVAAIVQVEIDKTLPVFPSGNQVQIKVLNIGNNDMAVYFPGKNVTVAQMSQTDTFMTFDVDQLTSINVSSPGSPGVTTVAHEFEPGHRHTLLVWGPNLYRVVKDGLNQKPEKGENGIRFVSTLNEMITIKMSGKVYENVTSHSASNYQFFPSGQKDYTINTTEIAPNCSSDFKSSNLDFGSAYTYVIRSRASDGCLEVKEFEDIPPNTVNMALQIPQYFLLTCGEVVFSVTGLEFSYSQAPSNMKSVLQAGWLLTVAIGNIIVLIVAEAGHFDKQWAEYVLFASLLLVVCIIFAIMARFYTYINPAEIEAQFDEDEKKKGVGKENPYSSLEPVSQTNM
The data set can be described thus: TP_TRANSPORTER: inhibition of Ceftibuten uptake (Ceftibuten: 1000 uM, Gly-Gly-Phe: 10000 uM) in PEPT1-expressing LLC-PK1 cells.

In data set [2] the target is T1, Solute carrier family 15 member 1 (Rattus norvegicus). The data set can be described thus: TP_TRANSPORTER: inhibition of Cephradine uptake (Cephradine: 1000 uM, Gly-Gly-Phe: 10000 uM) in PEPT1-expressing LLC-PK1 cells.
The target is the same in data set [3]. In words: (§1) TP_TRANSPORTER: uptake in PEPT1-expressing LLC-PK1 cells.
For data set [4] the target is unchanged. The data set can be described thus: TP_TRANSPORTER: inhibition of Cephradine uptake (Cephradine: 1000 uM, Bestatin: 10000 uM) in PEPT1-expressing LLC-PK1 cells.
The target is the same in data set [5]. In words: TP_TRANSPORTER: inhibition of Ceftibuten uptake (Ceftibuten: 1000 uM, Bestatin: 10000 uM) in PEPT1-expressing LLC-PK1 cells.
Data set [6] shares this target. The data set can be described thus: TP_TRANSPORTER: inhibition of Ceftibuten uptake (Ceftibuten: 1000 uM, Gly-Leu: 10000 uM) in PEPT1-expressing LLC-PK1 cells.
The target is the same in data set [7]. In words: TP_TRANSPORTER: inhibition of Cephradine uptake (Cephradine: 1000 uM, Gly-Leu: 10000 uM) in PEPT1-expressing LLC-PK1 cells.
For data set [8] the target is unchanged. In words: TP_TRANSPORTER: inhibition of Ceftibuten uptake (Ceftibuten: 1000 uM, Cefixime: 10000 uM) in PEPT1-expressing LLC-PK1 cells.
Data set [9] has the same target. The data set can be described thus: TP_TRANSPORTER: inhibition of Ceftibuten uptake (Ceftibuten: 1000 uM, Gly-Sar: 10000 uM) in PEPT1-expressing LLC-PK1 cells.
The target is the same in data set [10]. The data set can be described thus: TP_TRANSPORTER: inhibition of Cephradine uptake (Cephradine: 1000 uM, Gly-Sar: 10000 uM) in PEPT1-expressing LLC-PK1 cells.
Data set [11] shares this target. The data set can be described thus: TP_TRANSPORTER: inhibition of Cephradine uptake (Cephradine: 1000 uM, Ceftibuten: 5000 uM) in PEPT1-expressing LLC-PK1 cells.
Substrate in data set [12]: CC1=C(C(=O)O)N2C(=O)[C@@H](NC(=O)[C@H](N)C3=CCC=CC3)[C@H]2SC1
The data set is described as §1.

Substrate in data set [13]: Nc1nc(/C(=C/CC(=O)O)C(=O)N[C@@H]2C(=O)N3C(C(=O)O)=CCS[C@H]23)cs1
The data set is described as §1.

For the molecule `NCC(=O)NCC(=O)N[C@@H](Cc1ccccc1)C(=O)O` (H-Gly-Gly-Phe-OH), the Activity entry in data set [1] and in data set [2] was “inhibitor [+]” each time.

On to `CC(C)C[C@H](NC(=O)[C@@H](O)[C@H](N)Cc1ccccc1)C(=O)O`, for which the Activity result is “substrate [+]” in data set [3], “inhibitor [+]” in data set [4] and “inhibitor [+]” in data set [5].

For `CC(C)C[C@H](NC(=O)CN)C(=O)O`, the Activity result in [6] and in [7] was “inhibitor [+]” each time.

Consider `C=CC1=C(C(=O)O)N2C(=O)[C@@H](NC(=O)/C(=N\OCC(=O)O)c3csc(N)n3)[C@H]2SC1`, for which the Activity entry in data set [8] is “inhibitor [+]”.

With `CN(CC(=O)O)C(=O)CN` (HELM PEPTIDE1{G.[Sar]}$$$$V2.0), the Activity entry in [9] and in [10] was “inhibitor [+]” throughout.

`Nc1nc(/C(=C/CC(=O)O)C(=O)N[C@@H]2C(=O)N3C(C(=O)O)=CCS[C@H]23)cs1`: in data set [11], the Activity result is “inhibitor [+]”.

B1: Solute carrier family 15 member 1 (Rattus norvegicus), P51574 (protein)
chain: T1 sequence (whole entry)
Take B1: the Km in [12] was 8.2 mM; in [13], 1.5 mM.

The Km is the concentration of substrate that gives half-maximal velocity.
